The numbers were not newly measured in patent publication US9180154B2, “Method of manufacturing magnoliidae compounds” (Arizona Health Consulting Group, LLC, priority 2009, dated 2015), which cites them from elsewhere.

Data set [1] deals with D1-type and D2-type DA receptor. The settings on record: D1-type versus D2-type DA receptor.
The target of the next data set is T1, D2 receptor (Rattus norvegicus, UniProt P61169).
T1 construct: from tissue; host or cells: normal rats (in vivo; tissue not specified)
T1 sequence (P61169 whole entry): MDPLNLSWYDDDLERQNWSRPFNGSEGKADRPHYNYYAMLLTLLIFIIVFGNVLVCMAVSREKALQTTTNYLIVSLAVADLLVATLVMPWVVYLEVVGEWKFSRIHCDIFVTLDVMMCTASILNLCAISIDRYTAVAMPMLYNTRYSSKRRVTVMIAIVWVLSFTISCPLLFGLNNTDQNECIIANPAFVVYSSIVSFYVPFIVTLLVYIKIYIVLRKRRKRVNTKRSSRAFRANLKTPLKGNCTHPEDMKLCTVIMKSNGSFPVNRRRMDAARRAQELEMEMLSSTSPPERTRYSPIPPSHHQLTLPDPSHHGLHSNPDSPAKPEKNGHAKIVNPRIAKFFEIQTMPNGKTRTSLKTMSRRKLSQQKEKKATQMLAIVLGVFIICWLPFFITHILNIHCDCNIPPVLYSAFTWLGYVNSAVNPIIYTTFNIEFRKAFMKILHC

In another data set the target is T2, D1 receptors (Rattus norvegicus, UniProt P18901).
T2 construct: from tissue; host or cells: rats with unilateral nigral lesion (in vivo; striatum mentioned)
T2 sequence (P18901 whole entry): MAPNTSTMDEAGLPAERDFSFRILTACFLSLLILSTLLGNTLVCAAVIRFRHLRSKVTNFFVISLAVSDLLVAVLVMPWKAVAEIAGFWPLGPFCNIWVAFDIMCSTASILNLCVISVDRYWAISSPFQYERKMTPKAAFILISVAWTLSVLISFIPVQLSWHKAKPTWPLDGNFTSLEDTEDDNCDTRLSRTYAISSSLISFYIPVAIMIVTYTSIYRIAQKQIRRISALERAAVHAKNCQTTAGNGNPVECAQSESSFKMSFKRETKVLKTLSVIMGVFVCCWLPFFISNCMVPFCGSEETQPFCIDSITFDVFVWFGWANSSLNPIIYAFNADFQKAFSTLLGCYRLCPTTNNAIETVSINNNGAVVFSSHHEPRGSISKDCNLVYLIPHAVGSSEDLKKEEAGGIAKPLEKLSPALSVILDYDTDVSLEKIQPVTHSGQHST
The settings on record: rats with unilateral nigral lesion (DA receptor super sensitivity in striatum).

The structures appear in SMILES notation.

On to `COc1ccc2c(c1OC)CN1CCc3cc4c(cc3C1C2)OCO4` (stereo not drawn) [THB, tetrahydroberberine], for which the “effect on D1-type and D2-type DA receptor binding” value in data set [1] was “equipotent”.
Regarding `COc1cc2c(cc1O)[C@@H]1Cc3ccc(O)c(OC)c3CN1CC2` [l-SPD, l-Stepholidine], on D2 receptor, the “receptor action in normal rats” value is “characteristics of D2 receptor antagonist”. The “receptor action in lesioned rats” value on D1 receptors is “acts on D1 receptors as an agonist”.
